Results from patent US11111249B2, “Heteroaryl-pyrazole derivative, and preparation method therefor and medical application thereof” (Jiangsu Hengrui Medicine Co., Ltd., priority 2017, dated 2021).

Columns and labels:
[1] = tested on: peripheral blood mononuclear cells (PBMC); test: Stimulation of the secretion of IFN-α from PBMC (HTRF); type: cell-based, human; conditions: lowest concentration giving cytokine level at least 3 times the minimum detection limit; 24 hours
Method: The ability of the compound of the present application to stimulate the secretion of IFN-α from PBMC was determined by the following experimental method:
Compounds were diluted in pure DMSO at a maximum concentration of 5 mM in 4-fold gradients for a total of 9 points. Then 4 μL of the compound were taken and added to 196 μL of RMPI 1640 medium containing 10% FBS and mixed. 50 μL per well were taken and added into a new 96-well cell culture plate.
All reagents were equilibrated to room temperature, and a 250 mL culture flask was taken and 60 mL blood and PBS+2% FBS were added therein, and the mixture was gently diluted by pipetting. […] The cells were resuspend with RMPI 1640 medium containing 10% FBS and counted, adjusted the amount of PBMC to 3.33×10^6 cells/mL, and 150 μL were taken and added to the cell culture plate to which the compound had been added, and cultured at 37° C. in a 5.0% CO2 incubator for 24 hours. […]
It was read in the HTRF mode on the PHERAStar. […]
The ability of the compound of the present application and the control compound (prepared by the method of embodiment 21 of WO2016023511) to stimulate the secretion of IFN-α from PBMC were determined by the above test, and the measured MEC values were as shown in Table 2.

CYP3A4 = molecular target: T1, CYP3A4 (Homo sapiens, UniProt P08684); test: Inhibition of the midazolam metabolic site on human liver microsome CYP3A4; type: in vitro ADME; conditions: human liver microsomes, midazolam substrate, 30 minutes
T1 construct: Human liver microsomes (Corning Gentest); tissue Corning Gentest; host or cells: human liver microsomes
Method: The enzymatic activity of the compound of the present application against the Midazolam metabolite site on human liver microsome CYP3A4 was determined by the following experimental method:
CYP probe substrate (15 μM Midazolam, SIGMA UC429) and positive control inhibitor (Ketoconazole, SIGMA K1003).
100 mM PBS buffer was configured, and 2.5 mg/mL microsome solution and 5 mM NADPH solution were prepared with this buffer, and the 5× concentration compound working solution was diluted with PBS (150, 50, 15, 5, 1.5, 0.15, 0.015, 0 μM). The 5× concentration of Ketoconazole working solution (150, 50, 15, 5, 1.5, 0.15, 0.015, 0 μM) was diluted with PBS. Midazolam working solution was diluted to a concentration of 15 μM with PBS.
20 μL each of 2.5 mg/mL microsome solution, 15 μM Midazolam working solution, MgCl2 solution and compound working solution (150, 50, 15, 5, 1.5, 0.15, 0.015, 0 μM, each concentration was setted differently reaction system) were taken and mixed evenly. The compound was replaced with the same concentration of Ketoconazole at the positive control group. At the same time, 5 mM NADPH solution was pre-incubated for 5 minutes at 37° C. After 5 minutes, 20 μL NADPH were added into the wells, and the reaction was started and incubated for 30 minutes. All samples were incubated for two samples. […]

T1 sequence (P08684 whole entry): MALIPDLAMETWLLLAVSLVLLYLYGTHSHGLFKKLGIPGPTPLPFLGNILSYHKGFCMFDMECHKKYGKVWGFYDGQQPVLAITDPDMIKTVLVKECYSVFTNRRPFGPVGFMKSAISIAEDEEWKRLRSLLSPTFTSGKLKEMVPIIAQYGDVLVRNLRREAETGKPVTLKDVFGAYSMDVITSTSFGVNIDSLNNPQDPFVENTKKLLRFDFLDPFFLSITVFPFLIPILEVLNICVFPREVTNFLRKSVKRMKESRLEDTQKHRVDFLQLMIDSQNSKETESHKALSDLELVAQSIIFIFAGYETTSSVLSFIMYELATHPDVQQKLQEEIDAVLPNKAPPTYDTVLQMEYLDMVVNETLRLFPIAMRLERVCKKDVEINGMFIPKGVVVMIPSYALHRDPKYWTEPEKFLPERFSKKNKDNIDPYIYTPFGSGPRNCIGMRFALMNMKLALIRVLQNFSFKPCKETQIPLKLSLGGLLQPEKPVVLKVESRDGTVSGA

Compound: CCCCOc1nc(N)c2[nH]nc(Cc3ccc(CN4CCCC4)cc3)c2n1 [Embodiment 1, 5-Butoxy-3-(4-(pyrrolidin-1-ylmethyl)benzyl)-1H-pyrazolo[4,3-d]pyrimidin-7-amine]
- MEC (Minimal Effective Concentration) to stimulate the secretion of IFN-α from PBMC [1]: 0.28 nM
- IC50 (CYP3A4): 16.7 µM

Compound: CCCCOc1nc(N)c2[nH]cc(Cc3ccc(CN4CCCC4)cc3)c2n1 [Embodiment 21 of WO2016023511]
- MEC (Minimal Effective Concentration) to stimulate the secretion of IFN-α from PBMC [1]: 5.5 nM
- IC50 (CYP3A4): 1.02 µM
